The source of these data is patent US20240409558A1, “IRREVERSIBLE INHIBITORS OF KRAS” (BIOMEA FUSION, INC., priority 2021, published 2024).

For this assay, the system named is human KRAS G12C mutated cell line MIA PaCa-2. Put plainly: Inhibition of proliferation of MIA PaCa-2 cells (CellTiter-Glo, 7 day). It counts as cell-based. As to conditions: 168 h, mean, read-out: MIA PaCa-2 IC50 (μM) 7 day Mean. The source says:
The present example evaluates the ability of compounds provided herein to inhibit proliferation of KRAS mutant cells.
The proliferation inhibitory effect was investigated in the human KRAS G12C mutated cell line MIA PaCa-2 (Yunis et al., 1977, Int. J. Cancer 19(1):128-135; ATCC catalog no. CRL-1420). Cells were maintained in RPMI-1640 medium (ThermoFisher catalog no. 61870036) supplemented with 10% of Heat Inactivated FBS (ThermoFisher catalog no. A31605) and 1% Pen-Strep (ThermoFisher catalog no. 10378016) and cultured at 37° C. in a humidified incubator with 5% CO2. Cell lines were grown by adhering to culture flasks, and the cells were maintained in a range 70%-80% confluency.
ATP is present in all metabolically active cells and is considered as a marker for cell viability and proliferation. Metabolic cell activity was determined using the CellTiter-Glo kit (Promega catalog no. G7572), an ATP monitoring system based on the production of luminescence by the reaction of ATP with added UltraGlo® recombinant luciferase (Kawano et al., 2016, PLOS One, 8; 11(7):e0158888), according to the supplier's experimental recommendations. The assay was based on a 96 well plate format.
Test compounds were dissolved at 10 mM in DMSO (Sigma catalog no. D8418; purity >99.9%) and stored at −20° C. Eight concentrations of test compound were assessed in duplicate in an individual test occasion in parallel in the selected cell lines. MRTX-849 and AMG-510 were used as reference compounds and tested in duplicate at eight concentrations. 100% of proliferation is represented by the untreated cells (0.2% DMSO).
On the day of the experiment (TO), cells were detached with TrypLE (ThermoFisher catalog no. 12604054) and quantified using the Vi-CELL XR Cell Viability (Beckman Coulter) analyzer and diluted with fresh medium to obtain the cell density of about 1000 cells per 200 μL medium. 200 μL of cell suspension were added into wells in the 96 well plate.
After 2 hours from seeding cells, compounds were added using a D300e compound dispenser (Tecan Trading AG) at desired concentrations with shaking between each compound dispensed. Cell plates containing 200 μL/well were incubated at 37° C. in a humidified incubator with 5% CO2.
On day T3, 150 μL of growth media per well were removed from plates containing the samples, 150 uL fresh growth media were added to each well, and fresh compounds were added using a D300e compound dispenser (Tecan Trading AG) at desired concentrations with shaking between each compound dispensed. Cell plates containing 200 uL/well were incubated at 37° C. in a humidified incubator with 5% CO2. On day T7 plates containing the samples were equilibrated at room temperature for approximately 15 min, and then 40 μL/well of the Promega CellTiterGlo® reagent was added. Contents were mixed for 30 minutes on an orbital shaker to induce cell lysis. Luminescence was read using a Synergy Neo 2 (Agilent Technologies.
Data was expressed as % of inhibition compared to the 0.2% DMSO negative control, and is calculated as follows: % inhibition=100−[(RLU sample)×100/(RLU controls*)], where * indicates the average for 0.2% DMSO. […]
On the day of the experiment (TO), cells were detached with TrypLE (ThermoFisher catalog no. 12604054), quantified using the Vi-CELL XR Cell Viability (Beckman Coulter) analyzer and resuspended in fresh medium at a cell density of about 1000 cells per 200 μL medium. 200 μL of cell suspension were added to each well of a 96 well plate.
Two hours after seeding cells, compounds were added at desired concentrations using a D300e compound dispenser (Tecan Trading AG) with shaking after each compound addition. Assay plates were incubated at 37° C. in a humidified incubator with 5% CO2.
On day 3 (T3) 150 μL of medium from assay plates were removed. 150 μL fresh medium and compounds were added at desired concentrations using a D300e compound dispenser (Tecan Trading AG) with shaking after each compound addition. […]

Read-outs that look alike come from different tables or passages of the source. A value given as a limit tells only on which side of the number the result lay.

Take `F[C@H]1CN2CCC[C@@]2(COc2nc(N3CC4CCC(C3)N4)c3ccc(-c4cccc5cccc(Cl)c45)cc3n2)C1` [Compound 423]: the IC50 (in general, the concentration that inhibits the measured activity by half) (Table 4, 7 day) is over 1 µM.
In the case of `Fc1cc2c(N3C[C@H]4C[C@@H]3CN4)nc(OC[C@@]34CCCN3C[C@H](F)C4)nc2cc1-c1cccc2cccc(Cl)c12` [Compound 411, 7-(8-chloro-1-naphthyl)-4-[(1R,4R)-2,5-diazabicyclo[2.2.1]heptan-2-y1]-6-fluoro-2-[[(2R,8S)-2-fluoro-1,2,3,5,6,7-hexahydropyrrolizin-8-yl]methoxy]quinazoline], the IC50 (Table 4, 7 day) was over 1 µM.
In the case of `C=CC(=O)N1C2CCC1CN(c1nc(OC[C@@]34CCCN3C[C@H](F)C4)nc3cc(-c4cc(O)cc(Cl)c4C4CC4)cnc13)C2` [Compound 309], under “Table 3, 7 day”, the IC50 was over 1 µM.
As to `C=CC(=O)N1CCN(c2nc(OC[C@@]34CCCN3C[C@H](F)C4)nc3cc(-c4cc(O)cc(Cl)c4C4CC4)cnc23)C2(CC2)C1` [Compound 319, 1-[4-[7-(3-chloro-2-cyclopropyl-5-hydroxy-phenyl)-2-[[(2R,8S)-2-fluoro-1,2,3,5,6,7-hexahydropyrrolizin-8-yl]methoxy]pyrido[3,2-d]pyrimidin-4-yl]-4,7-diazaspiro[2.5]octan-7-yl]prop-2-en-1-one], the IC50 (Table 3, 7 day) was over 1 µM.
`Oc1cc(Cl)c(C2CC2)c(-c2ccc3c(N4CC5CCC(C4)N5)cc(OC[C@@]45CCCN4C[C@H](F)C5)nc3c2F)c1` [Compound 429, 3-chloro-4-cyclopropyl-5-[4-(3,8-diazabicyclo[3.2.1]octan-3-yl)-8-fluoro-2-[[(2R,8S)-2-fluoro-1,2,3,5,6,7-hexahydropyrrolizin-8-y1]methoxy]-7-quinolyl]phenol]: for the setting “Table 4, 7 day”, the IC50 is over 1 µM.
As for `C=CC(=O)N1C2CCC1CC(c1nc(OC[C@@]34CCCN3C[C@H](F)C4)nc3c(F)c(-c4cc(O)cc5ccc(F)c(F)c45)ncc13)C2` (stereo partly drawn) [Compound 333], the IC50 (Table 3, 7 day) stood at 1.75 µM.
On to `Oc1cc(Cl)c(C2CC2)c(-c2cnc3c(N4C[C@H]5C[C@@H]4CN5)nc(OC[C@@]45CCCN4C[C@H](F)C5)nc3c2)c1` [Compound 406, 3-chloro-4-cyclopropyl-5-[4-[(1R,4R)-2,5-diazabicyclo[2.2.1]heptan-2-yl]-2-[[(2R,8S)-2-fluoro-1,2,3,5,6,7-hexahydropyrrolizin-8-yl]methoxy]pyrido[3,2-d]pyrimidin-7-yl]phenol], for which, where the note is “Table 4, 7 day”, the IC50 is over 1 µM.
The same measure, in the same setting: under `Oc1cc(Cl)c(C2CC2)c(-c2ncc3c(N4CCC5(CC4)CO5)nc(OC[C@@]45CCCN4C[C@H](F)C5)nc3c2F)c1` [Compound 437, 3-chloro-4-cyclopropyl-5-[8-fluoro-2-[[(2R,8S)-2-fluoro-1,2,3,5,6,7-hexahydropyrrolizin-8-yl]methoxy]-4-(1-oxa-6-azaspiro[2.5]octan-6-yl)pyrido[4,3-d]pyrimidin-7-yl]phenol] stands over 1 µM.
In the case of `C=CC(=O)N1C2CCC1CN(c1nc(OC[C@@]34CCCN3C[C@H](F)C4)nc3cc(-c4cccc5cccc(Cl)c45)c(F)cc13)C2` [Compound 321, 1-[3-[7-(8-chloro-1-naphthyl)-6-fluoro-2-[[(2R,8S)-2-fluoro-1,2,3,5,6,7-hexahydropyrrolizin-8-yl]methoxy]quinazolin-4-y1]-3,8-diazabicyclo[3.2.1]octan-8-yl]prop-2-en-1-one], the half-maximal inhibitory concentration (IC50) (Table 3, 7 day) is over 1 µM.
For the molecule `C=CC(=O)N1C2CCC1CN(c1nc(OC[C@@]34CCCN3C[C@H](F)C4)nc3c(F)c(-c4cc(O)cc5cccc(Cl)c45)ncc13)C2` [Compound 305, 1-[3-[7-(8-chloro-3-hydroxy-1-naphthyl)-8-fluoro-2-[[(2R,8S)-2-fluoro-1,2,3,5,6,7-hexahydropyrrolizin-8-yl]methoxy]pyrido[4,3-d]pyrimidin-4-y1]-3,8-diazabicyclo[3.2.1]octan-8-yl]prop-2-en-1-one], the half-maximal inhibitory concentration (IC50) (Table 3, 7 day) came to 0.0023 µM.
For the molecule `Oc1cc(Cl)c(C2CC2)c(-c2cc3nc(OC[C@@]45CCCN4C[C@H](F)C5)nc(N4C[C@H]5C[C@@H]4CN5)c3cc2F)c1` [Compound 417], the IC50 (Table 4, 7 day) is over 1 µM.
Take `C=CC(=O)N1C[C@H]2C[C@@H]1CN2c1nc(OC[C@@]23CCCN2C[C@H](F)C3)nc2cc(-c3cc(O)cc(Cl)c3C3CC3)c(F)cc12` [Compound 318, 1-[(1R,4R)-5-[7-(3-chloro-2-cyclopropyl-5-hydroxy-phenyl)-6-fluoro-2-[[(2R,8S)-2-fluoro-1,2,3,5,6,7-hexahydropyrrolizin-8-yl]methoxy]quinazolin-4-yl]-2,5-diazabicyclo[2.2.1]heptan-2-yl]prop-2-en-1-one]: the IC50 (Table 3, 7 day) is over 1 µM.
With `C=CC(=O)N1CCC(c2nc(OC[C@@]34CCCN3C[C@H](F)C4)nc3c(F)c(-c4cc(O)cc5ccc(F)c(F)c45)ncc23)C[C@H]1C` (stereo in doubt) [Compound 334, 1-[(2R)-4-[7-(7,8-difluoro-3-hydroxy-1-naphthyl)-8-fluoro-2-[[(2R,8S)-2-fluoro-1,2,3,5,6,7-hexahydropyrrolizin-8-yl]methoxy]pyrido[4,3-d]pyrimidin-4-y1]-2-methyl-1-piperidyl]prop-2-en-1-one], the IC50 (Table 3, 7 day) came out at 0.00443 µM.
Regarding `C=C1CCN(c2nc(OC[C@@]34CCCN3C[C@H](F)C4)nc3c(F)c(-c4cc(O)cc(Cl)c4C4CC4)ncc23)CC1` [Compound 436, 3-chloro-4-cyclopropyl-5-[8-fluoro-2-[[(2R,8S)-2-fluoro-1,2,3,5,6,7-hexahydropyrrolizin-8-yl]methoxy]-4-(4-methylene-1-piperidyl)pyrido[4,3-d]pyrimidin-7-yl]phenol], for the setting “Table 4, 7 day”, the IC50 is over 1 µM.
The same measure, in the same setting: under `Oc1cc2cccc(-c3ncc4c(N5CC6CCC(C5)N6)nc(OC[C@@]56CCCN5C[C@H](F)C6)nc4c3F)c2c(F)c1F` [Compound 401, 5-[4-(3,8-diazabicyclo[3.2.1]octan-3-yl)-8-fluoro-2-[[(2R,8S)-2-fluoro-1,2,3,5,6,7-hexahydropyrrolizin-8-yl]methoxy]pyrido[4,3-d]pyrimidin-7-y1]-3,4-difluoro-naphthalen-2-ol] stands over 1 µM.
With `C=CC(=O)N1CCN(c2nc(OC[C@@]34CCCN3C[C@H](F)C4)nc3c(F)c(-c4cc(O)cc(Cl)c4C4CC4)ccc23)CC12CC2` [Compound 313, 1-[7-[7-(3-chloro-2-cyclopropyl-5-hydroxy-phenyl)-8-fluoro-2-[[(2R,8S)-2-fluoro-1,2,3,5,6,7-hexahydropyrrolizin-8-yl]methoxy]quinazolin-4-yl]-4,7-diazaspiro[2.5]octan-4-yl]prop-2-en-1-one], the IC50 (Table 3, 7 day) is 0.0373 µM.
As for `C=CC(=O)N1C2CCC1CN(c1nc(OC[C@@]34CCCN3C[C@H](F)C4)nc3c(F)c(-c4cc(O)cc5ccc(F)c(F)c45)ncc13)C2` [Compound 306, 1-[3-[7-(7,8-difluoro-3-hydroxy-1-naphthyl)-8-fluoro-2-[[(2R,8S)-2-fluoro-1,2,3,5,6,7-hexahydropyrrolizin-8-yl]methoxy]pyrido[4,3-d]pyrimidin-4-yl]-3,8-diazabicyclo[3.2.1]octan-8-yl]prop-2-en-1-one], where the note is “Table 3, 7 day”, the IC50 was found to be 0.0015 µM.
Turning to `C=CC(=O)N1C2CCC1CN(c1nc(OC[C@@]34CCCN3C[C@H](F)C4)nc3cc(-c4cc(O)cc(Cl)c4C4CC4)c(F)cc13)C2` [Compound 308, 1-[3-[7-(3-chloro-2-cyclopropyl-5-hydroxy-phenyl)-6-fluoro-2-[[(2R,8S)-2-fluoro-1,2,3,5,6,7-hexahydropyrrolizin-8-yl]methoxy]quinazolin-4-y1]-3,8-diazabicyclo[3.2.1]octan-8-yl]prop-2-en-1-one], the IC50 (Table 3, 7 day) came to 0.0282 µM.
